In assay [1] the target is T1, Na, K-ATPase (Ovis aries, UniProt P04074).
T1 construct: Na, K-ATPase will be purified from the outer medulla of frozen lamb kidney; from tissue; host or cells: outer medulla of frozen lamb kidney
The experiment in a line: NKA assay started by addition of KCl. The assay is classed as biochemical, lamb. To be noted: for ratio (digoxin): IC50_aver. relative to digoxin.
Description: (§1) Briefly Na, K-ATPase will be purified from the outer medulla of frozen lamb kidney. Competitive binding assays will be performed in the presence and absence of varying concentrations of the potential inhibitors. Inhibition studies will be carried out with and without varying concentrations of the potential inhibitors, and the NADPH oxidation rate in the presence and absence of the inhibitors will be determined.

For assay [2], the target named is T1, Na, K-ATPase. Description: NKA assay started by addition of ATP. The note with it: for ratio (digoxin) / IC50: assay started by addition of ATP; for ratio (digoxin): IC50_aver. relative to digoxin. Type of assay: biochemical, lamb.
Description: as §1
Assay [3] concerns the target rat 1α-subunit of the Na, K-ATPase (Rattus norvegicus, UniProt P06685). The note with it: cited from earlier work.
Assay [4] deals with human 1α-subunit of the Na, K-ATPase (Homo sapiens, UniProt P05023). To be noted: cited from earlier work.
Assay [5] concerns the target sheep 1α-subunit of the Na, K-ATPase, D121N mutant (Ovis aries, UniProt P04074, D126N). To be noted: D121N versus wild-type sheep; cited from earlier work.
In assay [6] the target is sheep 1α-subunit of the Na, K-ATPase, Q111R and N122D mutant (Ovis aries, UniProt P04074, N127D/Q116R). To be noted: Q111R and N122D versus wild-type sheep catalytic subunit; cited from earlier work.
Setting [7] is: assay started by addition of KCl.
Setting [8] is: determination 1, read-out: IC50_1.
Setting [9] is: determination 2, read-out: IC50_2.
[10] abbreviates: determination 3, read-out: IC50_3.
Setting [11] is: assay started by addition of KCl, average, read-out: IC50_aver.
Setting [12] is: assay started by addition of KCl, determination 1, read-out: IC50_1.
Setting [13] is: assay started by addition of KCl, determination 2, read-out: IC50_2.

Values joined by “and” are separate entries in the source; they are usually repeats but may differ in a detail not shown here. Equal values may be shown once.

`O=C1C=CC2C(=C1[N+](=O)[O-])Oc1c(ccc(O)c1[N+](=O)[O-])C2c1ccccc1C(=O)O` (stereo not shown) [Compound 14, 4′-5′ Di nitroflorescein]: the IC50 in assay [1] (IC50_1, assay started by addition of KCl, determination 1) came to 7.81 µM; in assay [1] (IC50_2, assay started by addition of KCl, determination 2), 9.53 µM; in assay [1] (IC50_aver., assay started by addition of KCl, average) it was 8.69 µM; in assay [2] (average, read-out: IC50_aver.), 8.75 µM; in assay [2] (setting [8]) it was 5.69 µM; in assay [2] (setting [9]) it was 8.87 µM. Further, the IC50 in assay [2] (setting [10]) was found to be 11.7 µM. Also, the “ratio (digoxin)” value in assay [1] (setting [7]) worked out at 869; in assay [2], 21.5. Also, the “ATPase inhibition (in words)” value in assay [2] is on record as “strong ATPase inhibition”.
As for `Oc1cc(O)c2c(c1)O[C@H](c1ccc(O)c(O)c1)[C@@H](O)C2` [Compound 9, (+)-Catechin Hydrate], the “ratio (digoxin)” value in assay [2] was found to be 664. In addition, the IC50 in assay [2] (average, read-out: IC50_aver.) was 270 µM; in assay [2] (setting [8]) it was 287 µM; in assay [2] (setting [9]), 253 µM.
As to `Cc1cc(O)c2c(c1)C(=O)c1cc(O)cc(O)c1C2=O` [Compound 15, Emodin], in assay [2], the “ratio (digoxin)” value was determined as 220. The IC50 in assay [2] (average, read-out: IC50_aver.) was found to be 89.8 µM; in assay [2] (setting [8]), 32.2 µM; in assay [2] (setting [9]) it was 75.5 µM; in assay [2] (setting [10]) it was 162 µM.
With `C[C@@H]1O[C@@H](O[C@H]2C[C@@H](O)[C@]3(CO)[C@H]4[C@H](O)C[C@]5(C)[C@@H](C6=CC(=O)OC6)CC[C@]5(O)[C@@H]4CC[C@]3(O)C2)[C@H](O)[C@H](O)[C@H]1O` [ouabain], the “sensitivity to ouabain inhibition (in words)” value in assay [3] (rat subunit) is “insensitive”. The “loss in ouabain inhibition” value in assay [3] (rat α1-subunit) is on record as approximately 1000 fold. Besides, in assay [4], the “sensitivity to ouabain (in words)” value was “sensitive”. In addition, in assay [5], the “decrease in sensitivity to ouabain” value is given as 1000 fold. The “less sensitive to ouabain than wild-type” value in assay [6] is listed as 1150 fold.
In the case of Lacmoid [Compound 19], the “ratio (digoxin)” value in assay [1] (setting [7]) turned out to be 340; in assay [2], 32.9. For the same compound, the IC50 in assay [1] (setting [11]) was found to be 3.4 µM; in assay [1] (setting [12]) it was 3.55 µM; in assay [1] (setting [13]) it was 3.25 µM; in assay [2] (average, read-out: IC50_aver.), 13.4 µM; in assay [2] (setting [8]), 11.2 µM; in assay [2] (setting [9]), 192 µM. Besides, the IC50 in assay [2] (setting [10]) came to 9.7 µM. Moreover, the “ATPase inhibition (in words)” value in assay [2] is on record as “strong ATPase inhibition”.
Consider `CC(CCc1ccc(O)cc1)NCCc1ccc(O)c(O)c1` (stereo not shown) [Compound 25, R—S Dobutamine], for which the “ratio (digoxin)” value in assay [2] is recorded as 173. For the same compound, the IC50 in assay [2] (average, read-out: IC50_aver.) was 70.6 µM; in assay [2] (setting [8]) it was 64.4 µM; in assay [2] (setting [9]) it was 76.8 µM.
For `COc1cccc2c1Sc1ccccc1C(=O)C2` [Compound 27], the “ratio (digoxin)” value in assay [2] came to 497. Also, the IC50 in assay [2] (average, read-out: IC50_aver.) is 203 µM; in assay [2] (setting [8]), 386 µM; in assay [2] (setting [9]), 102 µM; in assay [2] (setting [10]), 120 µM.
In the case of `COc1cc2c(c(OC)c1)Sc1ccccc1C(=O)C2` [Compound 28], in assay [1] (setting [7]), the “ratio (digoxin)” value was determined as 6764. In addition, the IC50 in assay [1] (setting [11]) is 67.6 µM; in assay [1] (setting [12]), 75.6 µM; in assay [1] (setting [13]), 59.7 µM; in assay [2] (average, read-out: IC50_aver.) it was 359 µM and 38.1 µM; in assay [2] (setting [9]), 42.5 µM; in assay [2] (setting [10]) it was 36.3 µM. For the same compound, the IC50 in assay [2] (determination 4, read-out: IC50_4) is 145 µM. Also, the “ATPase inhibition (in words)” value in assay [2] was “strong ATPase inhibition”.
